Results from publication PMC10064984, “Anti-cyclooxygenase, anti-glycation, and anti-skin aging effect of Dendrobium officinale flowers’ aqueous extract and its phytochemical validation in aging” (Frontiers in Immunology, 2023).
Several values for one entry are separate records, joined by “and”; a condition that tells them apart may be missing. Equal entries are not always repeated.

Legend:
Type in all cases: biochemical
[1] = biological target: T1, COX-2 (Homo sapiens, UniProt P35354); assay: Anti-COX-2 assay (COX-2 Inhibitor Screening Kit); conditions: for COX-2 inhibition: single replicates
T1 construct: purchased Beyotime S0168
T1 sequence (P35354 18-604): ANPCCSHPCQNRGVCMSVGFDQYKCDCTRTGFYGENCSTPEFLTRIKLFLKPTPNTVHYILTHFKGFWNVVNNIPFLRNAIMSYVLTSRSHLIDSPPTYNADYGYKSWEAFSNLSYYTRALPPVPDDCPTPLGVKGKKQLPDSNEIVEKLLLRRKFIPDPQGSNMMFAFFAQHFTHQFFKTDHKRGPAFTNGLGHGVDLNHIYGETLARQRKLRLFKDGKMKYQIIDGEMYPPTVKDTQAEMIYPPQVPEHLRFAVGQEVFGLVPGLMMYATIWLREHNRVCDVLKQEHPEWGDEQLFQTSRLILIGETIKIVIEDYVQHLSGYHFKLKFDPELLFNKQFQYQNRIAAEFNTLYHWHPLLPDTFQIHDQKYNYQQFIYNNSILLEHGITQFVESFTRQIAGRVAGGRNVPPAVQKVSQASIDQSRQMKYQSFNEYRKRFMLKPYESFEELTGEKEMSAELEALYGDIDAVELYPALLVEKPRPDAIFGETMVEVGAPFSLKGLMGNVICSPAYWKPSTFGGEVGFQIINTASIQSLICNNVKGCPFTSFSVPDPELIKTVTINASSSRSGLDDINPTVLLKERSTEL

[2] = DPPH· scavenging; conditions: mean ± SD, n = 3;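 also: colourimetric DPPH radical scavenging in 96-well plates, absorbance read-out, percent inhibition relative to ethanol control absorbance, IC50 derived graphically from dose-inhibition curves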
[3] = FRAP total antioxidant capacity; conditions: lower part of sheet (compound series);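 also: colourimetric FRAP kit assay read as absorbance in 96-well plates, values as mM FeSO4 via standard curve, EC1 being sample concentration matching 1.0 mmol/L FeSO4, Trolox positive control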
[4] = Fluorescent AGEs formation in a BSA-fructose/glucose system; conditions: for inhibition of fluorescent AGEs formation (BSA-抗糖化), single replicate: individual replicate; for inhibition of fluorescent AGEs formation (BSA-抗糖化), 平均 (mean): mean of 3 replicates
Summary of the method: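 BSA glycated in vitro with D-glucose and D-fructose while test samples, dissolved in DMSO:water (1:4), were present. Percent inhibition of fluorescent AGE formation calculated from fluorescence corrected for sample-only and BSA-free blanks; triplicate.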

[5] = ABTS·+ decolourisation capacity; conditions: for IC50: mean ± SD, n = 3; for ABTS scavenging rate: 0.5mM series, replicate wells, listed as T21
Summary of the method: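 ABTS·+ working solution in 0.2 M phosphate buffer, pH 7.4, was adjusted to A729 0.8 ± 0.05, and 100 μl was mixed with 200 μl sample; absorbance was read at 729 nm after 10 min, in triplicate. Inhibition was taken relative to a phosphate-buffer control, and IC50 was obtained graphically from dose-inhibition curves.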

[6] = mean ± SD, n = 3, read-out: BSA-glycation IC50

Substance: Kaempferol-3-O-rutinoside [compound 28]
- COX-2 inhibition (in words) [1]: no inhibitory effects
- COX-2 inhibition ([1]; 3.125 μM, listed as T12, 3.125 µM): 24.76% and 3.80%
- COX-2 inhibition ([1]; 6.25 μM, listed as T12, 6.25 µM): 9.88% and 6.40% and 22.14%
- COX-2 inhibition ([1]; 12.5 μM, listed as T12, 12.5 µM): -1.05% and 3.59% and 13.88%
- COX-2 inhibition ([1]; 25 μM, listed as T12, 25 µM): -5.04% and -8.91% and 26.95%
- COX-2 inhibition ([1]; 50 μM, listed as T12, 50 µM): -2.18% and -5.56% and 1.52%
- COX-2 inhibition ([1]; 100 μM, listed as T12, 100 µM): 7.51% and -46.40% and 2.25%
- COX-2 inhibition ([1]; 200 μM, listed as T12, 200 µM): -9.13% and -25.75% and 1.42%
- IC50 [2]: > 5000 µM
- FRAP EC1 [3]: >5000 µM
- inhibition of fluorescent AGEs formation (BSA-抗糖化), single replicate ([4]; 15.625 µM, listed as T12, 15.625 µM): -0.31% and 7.28% and -2.72%
- inhibition of fluorescent AGEs formation (BSA-抗糖化), 平均 (mean) ([4]; 15.625 µM): 1.41%
- inhibition of fluorescent AGEs formation (BSA-抗糖化), single replicate ([4]; 31.25 µM, listed as T12, 31.25 µM): 6.95% and 5.50% and 2.44%
- inhibition of fluorescent AGEs formation (BSA-抗糖化), 平均 (mean) ([4]; 31.25 µM): 4.96%
- inhibition of fluorescent AGEs formation (BSA-抗糖化), single replicate ([4]; 62.5 µM, listed as T12, 62.5 µM): 13.47% and 13.89% and 14.50%
- inhibition of fluorescent AGEs formation (BSA-抗糖化), 平均 (mean) ([4]; 62.5 µM): 13.95%
- inhibition of fluorescent AGEs formation (BSA-抗糖化), single replicate ([4]; 125 µM, listed as T12, 125 µM): 22.45% and 28.29% and 22.60%
- inhibition of fluorescent AGEs formation (BSA-抗糖化), 平均 (mean) ([4]; 125 µM): 24.45%
- inhibition of fluorescent AGEs formation (BSA-抗糖化), single replicate ([4]; 250 µM, listed as T12, 250 µM): 38.13% and 38.77% and 37.66%
- inhibition of fluorescent AGEs formation (BSA-抗糖化), 平均 (mean) ([4]; 250 µM): 38.19%
- inhibition of fluorescent AGEs formation (BSA-抗糖化), single replicate ([4]; 500 µM, listed as T12, 500 µM): 58.09% and 57.21% and 56.73%
- inhibition of fluorescent AGEs formation (BSA-抗糖化), 平均 (mean) ([4]; 500 µM): 57.34%
- inhibition of fluorescent AGEs formation (BSA-抗糖化), single replicate ([4]; 1000 µM, listed as T12, 1000 µM): 74.99% and 76.95% and 73.93%
- inhibition of fluorescent AGEs formation (BSA-抗糖化), 平均 (mean) ([4]; 1000 µM): 75.29%
- inhibition of fluorescent AGEs formation (BSA-抗糖化), single replicate ([4]; 2000 µM, listed as T12, 2000 µM): 85.90% and 86.14% and 85.80%
- inhibition of fluorescent AGEs formation (BSA-抗糖化), 平均 (mean) ([4]; 2000 µM): 85.95%
- inhibition of fluorescent AGEs formation (BSA-抗糖化), single replicate ([4]; 4000 µM (series head 'T9 4000µM', 2-fold dilutions), listed as T12): 92.80% and 92.79% and 92.84%
- inhibition of fluorescent AGEs formation (BSA-抗糖化), 平均 (mean) ([4]; 4000 µM): 92.81%
- IC50 [4, 6]: 374 ± 18.1 µM
- IC50 [5]: 35.01 ± 0.22 µM

Substance: Neoschaftoside [compound 21]
- COX-2 inhibition (in words) [1]: no inhibitory effects
- COX-2 inhibition ([1]; 31.25 μM, listed as T21, 31.25 µM): -6.16% and -4.80% and 6.61%
- COX-2 inhibition ([1]; 62.5 μM, listed as T21, 62.5 µM): 6.28% and 7.65% and 11.30%
- COX-2 inhibition ([1]; 125 μM, listed as T21, 125 µM): 1.19% and -2.74% and 1.96%
- COX-2 inhibition ([1]; 250 μM, listed as T21, 250 µM): 3.95% and 0.81% and 18.87%
- COX-2 inhibition ([1]; 500 μM, listed as T21, 500 µM): -4.13% and -1.62% and 4.93%
- COX-2 inhibition ([1]; 1000 μM, listed as T21, 1000 µM): -1.41% and 2.18% and 12.07%
- COX-2 inhibition ([1]; 2000 μM (2mM), listed as T21): 51.51% and 49.86% and 47.92%
- IC50 [2]: > 5000 µM
- FRAP EC1 [3]: >5000 µM
- inhibition of fluorescent AGEs formation (BSA-抗糖化), single replicate ([4]; 15.625 µM): 0.054% and 0.23% and 1.18%
- inhibition of fluorescent AGEs formation (BSA-抗糖化), 平均 (mean) ([4]; 15.625 µM): 0.49%
- inhibition of fluorescent AGEs formation (BSA-抗糖化), single replicate ([4]; 31.25 µM): 5.09% and 4.69% and 3.66%
- inhibition of fluorescent AGEs formation (BSA-抗糖化), 平均 (mean) ([4]; 31.25 µM): 4.48%
- inhibition of fluorescent AGEs formation (BSA-抗糖化), single replicate ([4]; 62.5 µM): 7.25% and 9.67% and 10.17%
- inhibition of fluorescent AGEs formation (BSA-抗糖化), 平均 (mean) ([4]; 62.5 µM): 9.03%
- inhibition of fluorescent AGEs formation (BSA-抗糖化), single replicate ([4]; 125 µM): 20.04% and 20.34% and 19.73%
- inhibition of fluorescent AGEs formation (BSA-抗糖化), 平均 (mean) ([4]; 125 µM): 20.04%
- inhibition of fluorescent AGEs formation (BSA-抗糖化), single replicate ([4]; 250 µM): 36.81% and 35.45% and 36.08%
- inhibition of fluorescent AGEs formation (BSA-抗糖化), 平均 (mean) ([4]; 250 µM): 36.11%
- inhibition of fluorescent AGEs formation (BSA-抗糖化), single replicate ([4]; 500 µM): 54.95% and 55.05% and 56.69%
- inhibition of fluorescent AGEs formation (BSA-抗糖化), 平均 (mean) ([4]; 500 µM): 55.56%
- inhibition of fluorescent AGEs formation (BSA-抗糖化), single replicate ([4]; 1000 µM): 71.70% (2×) and 72.55%
- inhibition of fluorescent AGEs formation (BSA-抗糖化), 平均 (mean) ([4]; 1000 µM): 71.98%
- inhibition of fluorescent AGEs formation (BSA-抗糖化), single replicate ([4]; 2000 µM): 83.42% and 82.90% and 83.96%
- inhibition of fluorescent AGEs formation (BSA-抗糖化), 平均 (mean) ([4]; 2000 µM): 83.43%
- inhibition of fluorescent AGEs formation (BSA-抗糖化), single replicate ([4]; 4000 µM (series head 'T9 4000µM', 2-fold dilutions)): 91.13% and 89.60% and 90.19%
- inhibition of fluorescent AGEs formation (BSA-抗糖化), 平均 (mean) ([4]; 4000 µM): 90.31%
- IC50 ([4]; BSA anti-glycation, IC50 of each of 3 replicates, read-out: IC50, single replicate curve): 432 µM and 437 µM and 421 µM
- IC50 [4, 6]: 430 ± 8 µM
- ABTS scavenging rate ([5]; concentration 15.625 (unit not given)): 37.92% and 38.74% and 38.24%
- ABTS scavenging rate ([5]; concentration 31.25 (unit not given)): 60.76% and 61.20% and 60.99%
- ABTS scavenging rate ([5]; concentration 62.5 (unit not given)): 81.08% and 80.87% and 80.62%
- ABTS scavenging rate ([5]; concentration 125 (unit not given)): 92.61% and 92.60% and 92.36%
- ABTS scavenging rate ([5]; concentration 250 (unit not given)): 98.02% (2×) and 98.07%
- ABTS scavenging rate ([5]; concentration 500 (unit not given)): 99.70% and 99.73% and 99.67%
- IC50 [5]: 21.4 ± 0.24 µM

Substance: Vicenin-3 [compound 19]
- COX-2 inhibition (in words) [1]: no inhibitory effects
- COX-2 inhibition ([1]; 31.25 μM, listed as T8, 31.25 µM): -27.09% and -25.76% and -19.42%
- COX-2 inhibition ([1]; 62.5 μM, listed as T8, 62.5 µM): -19.03% and -34.16% and -24.78%
- COX-2 inhibition ([1]; 125 μM, listed as T8, 125 µM): -26.82% and -40.95% and -33.02%
- COX-2 inhibition ([1]; 250 μM, listed as T8, 250 µM): -32.94% and -46.72% and -42.57%
- COX-2 inhibition ([1]; 500 μM, listed as T8, 500 µM): -35.30% and -54.98% and -48.28%
- COX-2 inhibition ([1]; 1000 μM, listed as T8, 1000 µM): -23.28% and -61.50% and -50.44%
- COX-2 inhibition ([1]; 2000 μM (2mM), listed as T8): -50.77% and -55.05% and -54.78%
- IC50 [2]: > 5000 µM
- FRAP EC1 [3]: >5000 µM
- IC50 [4, 6]: 243 ± 12 µM
- IC50 [5]: 74.8 ± 0.92 µM
